Experimental data taken from patent US20210101881A1 (Ancureall Pharmaceutical (Shanghai) Co., Ltd., priority 2018, published 2021).

test system: MOLM13 cells; assay: Growth inhibition of CDK9-positive cell line MOLM13 in vitro (CCK8/MTT assay); assay type: cell-based, human; conditions: Homo sapiens, MOLM-13; MOLM13 cells, cultured 3 to 6 days, CCK8; read-out: IC50 of the compound for inhibiting cell growth, MOLM13 cells
Description: 1. MOLM13 cell line and cell culture MOLM13 is a CDK9-positive human acute myeloid leukemia cell line from DMSZ. Suspension culture was carried out in RPMI1640 (Gibco) medium with 10% fetal bovine serum (Gibco), 1% penicillin-streptomycin and 2 mM glutamine.
Suspended MOLM-13 cells in logarithmic growth phase were collected by centrifugation (1700 rpm, 3 minutes), the supernatant was discarded, and the cells were counted. A solution with a cell concentration of 2×10^5 cells per milliliter was formulated and inoculated in a 96-well plate (Corning) with 100 microliters per well. The plate was incubated at 37° C., 5% CO2 overnight. On the next day, the test compound was added to the cultured cells in two parallel wells. […]
The present compound and the control compounds were respectively dissolved in DMSO (Sigma).
When the solvent control well became dark yellow, the OD450 nm absorption value was measured, and the cell growth rate was calculated according to the following formula. Cell growth rate %=100*(T−T0)/(C−T0), wherein T=the optical density value of the drug-treated well—the optical density value of the blank control well, T0=the optical density value of the well before drug treatment—the optical density value of the blank control well, C=the optical density value of the solvent control well—the optical density value of the blank control well. […] The assay was repeated three times, and the data was subjected to a biological statistical analysis.

Row | Structure (SMILES) | IC50
1 | NC(=O)c1cn(-c2nc(Nc3cccc(N4CCN(C(=O)C5CCOC5)CC4)c3)ncc2F)c2ccccc12 (stereo not shown) [Compound 170, 1-(5-fluoro-2-{3-[4-(tetrahydro-furan-3-carbonyl)-piperazin-1-yl]-phenylamino}-pyrimidin-4-yl)-1H-indole-3-carboxamide] | 0.001 to 0.01 µM
2 | NC(=O)c1cn(-c2nc(Nc3cccc(N4CCN(C(=O)C5CCCN5)CC4)c3)ncc2F)c2ccccc12 (stereo not shown) [Compound 169, 1-(5-fluoro-2-{3-[4-(pyrrolidin-2-carbonyl)-1-piperazin-1-yl]-phenylamino}-pyrimidin-4-yl)-1H-indole-3-carboxamide] | 0.001 to 0.01 µM
3 | NC(=O)c1cn(-c2nc(Nc3cccc(N4CCC(N5CCOCC5)CC4)c3)ncc2F)c2ccccc12 [Compound 139, 1-{5-fluoro-2-[3-(4-morpholin-4-yl-piperidin-1-yl)-phenylamino]-pyrimidin-4-yl}-1H-indole-3-carboxamide] | 0.001 to 0.01 µM
4 | NC(=O)c1cn(-c2nc(Nc3cccc(N4CCN(CC5CCCO5)CC4)c3)ncc2F)c2ccccc12 (stereo not shown) [Compound 160, 1-(5-fluoro-2-{3-[4-(tetrahydro-furan-2-ylmethyl)-piperazin-1-yl]-phenylamino}-pyrimidin-4-yl)-1H-indole-3-carboxamide] | 0.01 to 0.1 µM
5 | Cc1cc(Nc2ncc(F)c(-n3cc(C(N)=O)c4ccccc43)n2)ccc1N1CCN(C(C)C)CC1 [Compound 59, 1-{5-fluoro-2-[4-(4-isopropyl-piperazin-1-yl)-3-methyl-phenylamino]-pyrimidin-4-yl}-1H-indole-3-carboxamide] | 0.001 to 0.01 µM
6 | Cc1cc(Nc2nccc(-n3cc(C(N)=O)c4ccccc43)n2)ccc1N1CCN(C(C)C)CC1 [Compound 51, 1-{2-[4-(4-isopropyl-piperazin-1-yl)-3-methyl-phenylamino]-pyrimidin-4-yl}-1H-indole-3-carboxamide] | 0.001 to 0.01 µM
7 | COc1cc(Nc2ncc(Cl)c(-n3cc(C(N)=O)c4ccccc43)n2)ccc1N(C)CCN1CCCC1 [Compound 99, 1-(5-chloro-2-{3-methoxy-4-[methyl-(2-pyrrolidin-1-yl-ethyl)-amino]-phenylamino}-pyrimidin-4-yl)-1H-indole-3-carboxamide] | 0.001 to 0.01 µM
8 | Cc1cc(Nc2nccc(-n3cc(C(N)=O)c4ccccc43)n2)ccc1N(C)CCN(C)C [Compound 79, 1-(2-{4-[(2-dimethylamino-ethyl)-methyl-amino]-3-methyl-phenylamino}-pyrimidin-4-yl)-1H-indole-3-carboxamide] | 0.001 to 0.01 µM
9 | CN(CCN1CCCC1)c1ccc(Nc2ncc(Cl)c(-n3cc(C(N)=O)c4ccccc43)n2)cc1 [Compound 94, 1-(5-chloro-2-{4-[methyl-(2-pyrrolidin-1-yl-ethyl)-amino]-phenylamino}-pyrimidin-4-yl)-1H-indole-3-carboxamide] | 0.001 to 0.01 µM
10 | Cc1ccc(Nc2ncc(F)c(-n3cc(C(N)=O)c4ccccc43)n2)cc1N1CCN(C)CC1 [Compound 117, 1-{5-fluoro-2-[4-methyl-3-(4-methyl-piperazin-1-yl)-phenylamino]-pyrimidin-4-yl}-1H-indole-3-carboxamide] | 0.01 to 0.1 µM
11 | CN1CCC(N2CCN(c3ccc(Nc4nccc(-n5cc(C(N)=O)c6ccccc65)n4)cc3F)CC2)CC1 [Compound 62, 1-(2-{3-fluoro-4-[4-(1-methyl-piperidin-4-yl)-piperazin-1-yl]-phenylamino}-pyrimidin-4-yl)-1H-indole-3-carboxamide] | 0.01 to 0.1 µM
12 | NC(=O)c1cn(-c2ccnc(Nc3ccc(N4CCNCC4)cc3)n2)c2ncccc12 [Compound 135, 1-[2-(4-piperazin-1-yl-phenylamino)-pyrimidin-4-yl]-1H-pyrrolo[2,3-b]pyridine-3-carboxamide] | 0.1 to 1 µM
13 | NC(=O)c1cn(-c2nc(Nc3cccc(N4CCN(CC5CO5)CC4)c3)ncc2F)c2ccccc12 (stereo not shown) [Compound 156, 1-{5-fluoro-2-[3-(4-oxiranylmethyl-piperazin-1-yl)-phenylamino]-pyrimidin-4-yl}-1H-indole-3-carboxamide] | 0.01 to 0.1 µM
14 | NC(=O)c1cn(-c2nc(Nc3cccc(N4CCN(C5CCOC5)CC4)c3)ncc2F)c2ccccc12 (stereo not shown) [Compound 150, 1-(5-fluoro-2-{3-[4-(tetrahydro-furan-3-yl)-piperazin-1-yl]-phenylamino}-pyrimidin-4-yl)-1H-indole-3-carboxamide] | 0.001 to 0.01 µM

More lines, now with the values ahead:

Row | IC50 | Structure (SMILES)
15 | 0.01 to 0.1 µM | CNC(=O)c1cn(-c2ccnc(Nc3cccc(N4CCNCC4)c3)n2)c2ccccc12 [Compound 107, 1-[2-(3-piperazin-1-yl-phenylamino)-pyrimidin-4-yl]-1H-indole-3-carboxmethylamide]
16 | 0.01 to 0.1 µM | NC(=O)c1cn(-c2ccnc(Nc3ccc(NCCN4CCCC4)cc3)n2)c2ccccc12 [Compound 13, 1-{2-[4-(2-pyrrolidin-1-yl-ethylamino)-phenylamino]-pyrimidin-4-yl}-1H-indole-3-carboxamide]
17 | 0.01 to 0.1 µM | CN1CCN(CCNc2ccc(Nc3nccc(-n4cc(C(N)=O)c5ccccc54)n3)cc2)CC1 [Compound 11, 1-(2-{4-[2-(4-methyl-piperazin-1-yl)-ethylamino]-phenylamino}-pyrimidin-4-yl)-1H-indole-3-carboxamide]
18 | 0.001 to 0.01 µM | CN(CCN1CCCC1)c1ccc(Nc2nccc(-n3cc(C(N)=O)c4ccccc43)n2)cc1 [Compound 90, 1-(2-{4-[methyl-(2-pyrrolidin-1-ylethyl)-amino]-phenylamino}-pyrimidin-4-yl)-1H-indole-3-carboxamide]
19 | 0.01 to 0.1 µM | CNC(=O)c1cn(-c2ccnc(Nc3ccc(C4CCN(C)CC4)cc3)n2)c2ccccc12 [Compound 104, 1-{2-[4-(1-methyl-piperidin-4-yl)-phenylamino]-pyrimidin-4-yl}-1H-indole-3-carboxmethylamide]
20 | 0.001 to 0.01 µM | NC(=O)c1cn(-c2ccnc(Nc3ccc(N4CCNCC4)cc3)n2)c2cc(F)ccc12 [Compound 30, 6-fluoro-1-[2-(4-piperazin-1-yl-phenylamino)-pyrimidin-4-yl]-1H-indole-3-carboxamide]
21 | 0.01 to 0.1 µM | NC(=O)c1cn(-c2ccnc(Nc3ccc(NC4CCNCC4)cc3)n2)c2ccccc12 [Compound 12, 1-{2-[4-(piperidin-4-amino)-phenylamino]-pyrimidin-4-yl}-1H-indole-3-carboxamide]
22 | 0.01 to 0.1 µM | CN1CCN(c2ccc(Nc3nccc(-n4cc(C(N)=O)c5ccccc54)n3)cc2)CC1 [Compound 45, 1-{2-[4-(4-methyl-piperazin-1-yl)-phenylamino]-pyrimidin-4-yl}-1H-indole-3-carboxamide]
23 | 0.001 to 0.01 µM | CN1CCCN(c2cccc(Nc3nccc(-n4cc(C(N)=O)c5ccccc54)n3)c2)CC1 [Compound 112, 1-{2-[3-(4-methyl-[1,4]homopiperazin-1-yl)-phenylamino]-pyrimidin-4-yl}-1H-indole-3-carboxamide]
24 | < 0.001 µM | CN1CCN(c2cccc(Nc3nccc(-n4cc(C(N)=O)c5ccccc54)n3)c2)CC1 [Compound 113, 1-{2-[3-(4-methyl-piperazin-1-yl)-phenylamino]-pyrimidin-4-yl}-1H-indole-3-carboxamide]
25 | > 1 µM | CNC(=O)c1cn(-c2ccnc(Nc3ccc(S(N)(=O)=O)cc3)n2)c2ccccc12 [Compound 108, 1-[2-(4-sulfamoyl-phenylamino)-pyrimidin-4-yl]-1H-indole-3-carboxmethylamide]
